# From patent publication US10633350B2, “Diphenyl derivatives and uses thereof” (NOVARTIS AG, priority 2017, dated 2020)
# How the values were obtained:
# FoxO3a = FoxO3a inhibition assay (GFP-FoxO3a nuclear to cytoplasmic translocation) in U2OS GFP-FoxO3a H212R reporter cells; type: cell-based; conditions: Homo sapiens, 0.5 h, serum starved overnight, 30 minutes compound treatment, ratio of nuclear to cytosolic GFP intensity, AC50 = concentration that results in 50% activation or inhibition, read-out: FoxO AC50
# Experimental: (§1) Phosphorylation of Akt on S473 and FoxO3a nuclear to cytoplasmic translocation were used as readouts of PI3K/Akt/mTOR pathway activation downstream of growth factor signaling.
# (§2) Reporter cell line. U2OS GFP-FoxO3a H212R reporter cell line was established by transducing U2OS cells with the retroviral plasmid pLEGFP-C1 containing FoxO3a H212R transgene and selecting for G418 resistant clones.
# (§3) Reporter assay. U2OS GFP-FoxO3a H212R cells were plated in 384-well plates at 4000 cells per well in 30 microliters of McCoy's 5A medium containing 10% FBS. On day 1 the cells were washed with serum free medium and serum starved overnight. On day 2 the cells were treated with different doses of the compounds for 30 minutes, fixed with 4% Paraformaldehyde for 1 hour and stained with Phospho-AKT (Ser473) antibody (Cell Signaling Technology, catalog #4060) overnight at 4° C. After nuclei staining with Hoechst 33342 (Life Technologies, catalog # H3570) the plates were imaged with InCell 2000 (GE Healthcare Bio-Sciences). FoxO3a inhibition activity is calculated as the ratio of nuclear to cytosolic GFP intensity in percent. Akt activation is measured as the total cellular intensity of Phospho-Akt antibody staining in percent. DMSO control is set as 0% activity.
# Akt = Akt activation assay (Phospho-AKT (Ser473) antibody staining) in U2OS GFP-FoxO3a H212R reporter cells; type: cell-based; conditions: Homo sapiens, 0.5 h, serum starved overnight, 30 minutes compound treatment, total cellular intensity of Phospho-Akt (Ser473) antibody staining, AC50 = concentration that results in 50% activation or inhibition
# Experimental: as §1, §2, §3
SMILES,AC50 (FoxO3a) [nM],AC50 (Akt) [nM]
Cc1nc(C(N)=O)nn1-c1ccc(C(C)(C)c2ccc(-c3cnc4c(c3)OCCN4C)cc2)cc1 [Example 13-11],416,1000
Cc1nc(C(N)=O)nn1-c1ccc(Cc2ccc(-c3ccc(C(=O)N4CCN(C)CC4)cc3)cc2)cc1 [Example 15-3],60,188
"Cc1cc(C(N)=O)nn1-c1ccc(Cc2ccc(-c3cccnc3)cc2)cc1 [Example 3-10, 5-methyl-1-(4-(4-(pyridin-3-yl)benzyl)phenyl)-1H-pyrazole-3-carboxamide]",110,497
"Cc1cc(C(N)=O)nn1-c1ccc(C(C)(C)c2ccc(-c3ccc4[nH]ncc4c3)cc2)cc1 [Example 6-4, 1-(4-(2-(4-(1H-indazol-5-yl)phenyl)propan-2-yl)phenyl)-5-methyl-1H-pyrazole-3-carboxamide]",517,1040
"Cc1nc(C(N)=O)nn1-c1ccc(C(C)(C)c2ccc(-c3ccc(C(N)C(F)(F)F)cc3)cc2)cc1 (stereo not drawn) [Example 14, 1-(4-(2-(4′-(1-amino-2,2,2-trifluoroethyl)-[1,1′-biphenyl]-4-yl)propan-2-yl)phenyl)-5-methyl-1H-1,2,4-triazole-3-carboxamide]",113,180
"CCN(CC)Cc1ccc(-c2ccc(Cc3ccc(-n4nc(C(N)=O)cc4C)cc3)cc2)cc1 [Example 3-2, 1-(4-((4′-((diethylamino)methyl)-[1,1′-biphenyl]-4-yl)methyl)phenyl)-5-methyl-1H-pyrazole-3-carboxamide]",236,341
"Cc1cc(C(N)=O)nn1-c1ccc(C(C)(C)c2ccc(C3=CCC(N4CCOCC4)CC3)cc2)cc1 (stereo not drawn) [Example 8, 5-methyl-1-(4-(2-(4′-morpholino-2′,3′,4′,5′-tetrahydro-[1,1′-biphenyl]-4-yl)propan-2-yl)phenyl)-1H-pyrazole-3-carboxamide]",96,377
"Cc1cc(C(N)=O)nn1-c1ccc(Cc2ccc(-c3ccc(C(=O)N4CCNCC4)cc3)cc2)cc1 [Example 24, 5-methyl-1-(4-((4′-(piperazine-1-carbonyl)-[1,1′-biphenyl]-4-yl)methyl)phenyl)-1H-pyrazole-3-carboxamide]",33,155
"Cc1cc(C(N)=O)nn1-c1ccc(Cc2ccc(-c3ccc4c(c3)CN(C)C4)cc2)cc1 [Example 3-13, 5-methyl-1-(4-(4-(2-methylisoindolin-5-yl)benzyl)phenyl)-1H-pyrazole-3-carboxamide]",57,167
Cc1nc(C(N)=O)nn1-c1ccc(Cc2ccc(-c3ccc(CN4CCCC(F)(F)C4)cc3)cc2)cc1 [Example 38-9],13,11
"Cc1nc(C(N)=O)nn1-c1ccc(Cc2ccc(-c3ccc(CN4CCN(C)CC4)nc3)cc2)cc1 [Example 34, 5-methyl-1-(4-(4-(6-((4-methylpiperazin-1-yl)methyl)pyridin-3-yl)benzyl)phenyl)-1H-1,2,4-triazole-3-carboxamide]",300,576
"Cc1cc(C(N)=O)nn1-c1ccc(C(C)(C)c2ccc(C3=CCC(=O)CC3)cc2)cc1 [Example 7, 5-methyl-1-(4-(2-(4′-oxo-2′,3′,4′,5′-tetrahydro-[1,1′-biphenyl]-4-yl)propan-2-yl)phenyl)-1H-pyrazole-3-carboxamide]",58,276
Cc1cc(C(N)=O)nn1-c1ccc(Cc2ccc(-c3ccc(CNCCO)cc3)cc2)cc1 [Example 16-2],138,426
"Cc1cc(C(N)=O)nn1-c1ccc(Cc2ccc(-c3ccc(CN4CCCC4)cc3)cc2)cc1 [Example 3-1, 5-methyl-1-(4-((4′-(pyrrolidin-1-ylmethyl)-[1,1′-biphenyl]-4-yl)methyl)phenyl)-1H-pyrazole-3-carboxamide]",36,135
"Cc1nnc(-c2ccc(-c3ccc(Cc4ccc(-n5nc(C(N)=O)cc5C)cc4)cc3)cc2)o1 [Example 3-9, 5-methyl-1-(4-((4′-(5-methyl-1,3,4-oxadiazol-2-yl)-[1,1′-biphenyl]-4-yl)methyl)phenyl)-1H-pyrazole-3-carboxamide]",29,63
"Cc1cc(C(N)=O)nn1-c1ccc(Cc2ccc(-c3ccc(CN4CCCC4)nc3)cc2)cc1 [Example 5-5, 5-methyl-1-(4-(4-(6-(pyrrolidin-1-ylmethyl)pyridin-3-yl)benzyl)phenyl)-1H-pyrazole-3-carboxamide]",152,426
"Cc1cc(C(N)=O)nn1-c1ccc(C(C)(C)c2ccc(-c3ccncc3)cc2)cc1 [Example 6-3, 5-methyl-1-(4-(2-(4-(pyridin-4-yl)phenyl)propan-2-yl)phenyl)-1H-pyrazole-3-carboxamide]",149,432
"Cc1cc(C(N)=O)nn1-c1ccc(Cc2ccc(-c3ccc(CN4CC(F)(F)C[C@@H]4CO)cc3)cc2)cc1 [Example 18, (R)-1-(4-((4′-((4,4-difluoro-2-(hydroxymethyl)pyrrolidin-1-yl)methyl)-[1,1′-biphenyl]-4-yl)methyl)phenyl)-5-methyl-1H-pyrazole-3-carboxamide]",95,394
Cc1cc(-c2ccc(C(C)(C)c3ccc(-n4nc(C(N)=O)nc4C)cc3)cc2)ccn1 [Example 13-9],183,714
Cc1nc(C(N)=O)nn1-c1ccc(C(C)(C)c2ccc(-c3ccc4ccncc4c3)cc2)cc1 [Example 13-5],147,446
"Cc1nc(C(N)=O)nn1-c1ccc(C(C)(C)c2ccc(-c3ccc(CN4CCCC4)cc3)cc2)cc1 [Example 13-1, 5-methyl-1-(4-(2-(4′-(pyrrolidin-1-ylmethyl)-[1,1′-biphenyl]-4-yl)propan-2-yl)phenyl)-1H-1,2,4-triazole-3-carboxamide]",128,375
Cc1nc(C(N)=O)nn1-c1ccc(C(C)(C)c2ccc(-c3cnn(C)c3)cc2)cc1 [Example 13-8],664,1750
"Cc1nc(C(N)=O)nn1-c1ccc(Cc2ccc(-c3ccc(CN4CCC(CN(C)C)CC4)cc3)cc2)cc1 [Example 39-1, 1-(4-((4′-((4-((dimethylamino)methyl)piperidin-1-yl)methyl)-[1,1′-biphenyl]-4-yl)methyl)phenyl)-5-methyl-1H-1,2,4-triazole-3-carboxamide]",195,615
Cc1nc(C(N)=O)nn1-c1ccc(Cc2ccc(-c3ccc(CN4CCS(=O)(=O)CC4)cc3)cc2)cc1 [Example 39-32],48,85
"Cc1cc(C(N)=O)nn1-c1ccc(Cc2ccc(-c3ccc(C(C)(C)O)cn3)cc2)cc1 [Example 19, 1-(4-(4-(5-(2-hydroxypropan-2-yl)pyridin-2-yl)benzyl)phenyl)-5-methyl-1H-pyrazole-3-carboxamide]",71,209
"Cc1cc(C(N)=O)nn1-c1ccc(Cc2ccc(C3=CCN(C)CC3)cc2)cc1 [Example 3-15, 5-methyl-1-(4-(4-(1-methyl-1,2,3,6-tetrahydropyridin-4-yl)benzyl)phenyl)-1H-pyrazole-3-carboxamide]",31,83
"Cc1cc(C(N)=O)nn1-c1ccc(Cc2ccc(C3CCN(C)CC3)cc2)cc1 [Example 4, 5-methyl-1-(4-(4-(1-methylpiperidin-4-yl)benzyl)phenyl)-1H-pyrazole-3-carboxamide]",325,1220
